{"source": "patent US12569557B2", "about": "“Targeting moDC to enhance vaccine efficacy on mucosal surface” (UNIVERSITY OF FLORIDA RESEARCH FOUNDATION, INCORPORATED, priority 2018, dated 2026)", "key": {"TNFR2": {"tested_on": "TNFR2", "type": "in vivo, mice"}, "[1]": {"tested_on": "PspA-specific Th1, Th2, Th17 responses", "experiment": "Ex vivo recall of PspA-specific Th responses in lung cells and splenocytes of immunized mice", "details": "immunized IRF4fl/flCD11ccre mice", "method": "(§1) Groups of mice (4 per group) were intranasally vaccinated with CDG (5 μg, Invivogen, cat #vac-cdg) adjuvanted PspA (2 μg, BEI Resources) or PspA alone^17. Mice were immunized twice at 14 days interval. For intranasal vaccination, animals were anesthetized using isoflurane in an E-Z Anesthesia system (Euthanex Corp, Palmer, Pa.). PspA, with or without CDG was administered in 20 μl saline. Sera were collected 14 days after the last immunization. The PspA-specific Abs were determined by ELISA. Secondary Abs used were anti-mouse IgG1-HRP (Southern Biotech, cat #1070-05), anti-mouse IgG2C-HRP (Southern Biotech, cat #1079-05), and anti-mouse IgA-HRP (Southern Biotech, cat #1040-05). To determine Ag-specific Th response, splenocytes from PspA or CDG+PspA immunized mice were stimulated with 5 μg/ml PspA for four days in culture. Th1, Th2, and Th17 cytokines were measured in the supernatant by ELISA."}, "moDCs": {"tested_on": "moDCs", "experiment": "Antigen presentation by lung moDCs after intranasal CDG and Eα-OVA (YAE mAb)", "type": "in vivo, C57BL/6 mice", "details": "CDG and Eα-OVA i.n.", "excerpt": "How does non-migratory moDCs (FIGS. 1D & 12B)^25,33 promote CDG-induced antibody responses? moDCs were efficient at antigen processing (FIG. 8D). We first asked if they presented antigen on cell surface. We intranasally administered C57BL/6 mice with CDG and Eα-OVA, and detected I-A^b/Eα^+ cells with the YAE mAb. Indeed, CDG increased YAE^+ moDCs in vivo (FIG. 9A)."}, "anti-PspA IgG and IgA": {"tested_on": "anti-PspA IgG and IgA", "experiment": "Intranasal CDG/PspA immunization: PspA-specific antibodies in serum and BALF by ELISA", "type": "in vivo, mice", "method": "as §1"}, "[2]": {"details": "cited from earlier work"}, "RelA, RelB, TBK1": {"tested_on": "RelA, RelB, TBK1", "experiment": "pRelA, pRelB and p-TBK1 in lung DC subsets after intranasal CDG, flow cytometry", "type": "in vivo, mice"}, "lung TNF [3]": {"tested_on": "lung TNF", "details": "administered intranasally; cited from earlier work"}, "lung DCs": {"tested_on": "lung DCs", "experiment": "Lung DC / alveolar macrophage maturation (CD86, CCR7) after intranasal CDG, flow cytometry", "type": "in vivo, mice"}, "lung TNF [4]": {"tested_on": "lung TNF", "experiment": "Detection of lung cytokine production after intranasal CDG (ELISA of lung homogenates)", "type": "in vivo, mice", "method": "Mice were intranasally administered 5 μg CDG, then sacrificed after 5 hrs by C02 asphyxiation^17. Lungs were perfused with cold PBS. The harvested lungs were washed with PBS once, then stored in 0.7 ml Tissue protein extraction reagent (T-PER) (Thermo Scientific, cat #78510) containing protease inhibitors (Roche, cat #11836153001) at −80° C. Later, the lung was thawed on ice and homogenized with Minilys® (Precellys, 5,000 RPM for 30 sec) using Precellys lysing kit (Precellys, cat #KT03961). Lung homogenates were transferred to a 1.5 ml tube and spun at 14,000 g for 30 min at 4° C. The supernatant was collected and analyzed for TNF production by ELISA (eBioscience, cat #88-7324)."}, "[5]": {"tested_on": "H5N1 influenza, Acinetobacter baumannii, Staphylococcus aureus, Klebsiella pneumoniae and Streptococcus pneumoniae", "details": "cited from earlier work"}, "mTNF": {"tested_on": "mTNF", "experiment": "Cell surface mTNF expression on lung DCs detected with TNFR2-Fc recombinant protein", "type": "in vivo", "details": "WT mice, i.n. CDG 16 hours", "method": "We intranasally administered CDG to WT mice for 16 hours and detected cell surface mTNF expression using […] recombinant protein (FIG. 8A).\nThe following Abs from Biolegend were used in the flow cytometry: CD80 (16-10A1), CD86 (GL1), CD11B (M1/70), CD11C (N418), FcεRIa (MAR-1), MHC II (M5/114.15.2), CD103(2E7), CD24 (m1/69), CD64 (x54-5/7.1), CCR7 (4B12), TNF (MP6-XT22), TNFR2 (TR75-89), PD-L1 (10F.9G2), BTLA (8F4), PD-L2 (TY25), CD301b (URA-1), CX3CR1 (SA011F11), CD172a (P84), CD44 (IM7). The following Abs were from Cell Signaling: p-TBK1 (ser172, d52c2), p-RelB (ser552, d41b9), p-RelA (ser536, cat #4887S). The following reagents were from Sino Biological: TNFR2 Ab (cat #50128-R112-A), TNFR2-Fc (mouse TNFR2 extracellular domain, Met 1-Gly 258, was fused with the Fc region of human IgG1 at the C-terminus, cat #50128-M02H), human IgG1 Fc (cat #10702-HNAH). Alexa Fluor®488 mouse anti-human IgG1 Fc was from Invitrogen (cat #A-10631). FITC-CDG (2′-Fluo-AHC-CDG) was from Biolog (cat #F009). Cell sorting was performed on the BD FACSAriaIII Flow Cytometer and Cell Sorter. After sorting, dendritic cells were CFSE labeled, according to the protocol from the manufacturer (Invitrogen)."}}, "note": "“Also recorded” adds a separate entry of the source."}
{"smiles": "Nc1nc2c(ncn2[C@@H]2O[C@@H]3COP(=O)(O)O[C@H]4[C@@H](O)[C@H](n5cnc6c(=O)[nH]c(N)nc65)O[C@@H]4COP(=O)(O)O[C@H]3[C@H]2O)c(=O)[nH]1", "note": "[CDG, cyclic di-GMP]", "values": [{"measurement": "TNFR2 expression on moDCs", "setting": "TNFR2; WT mice", "value": "induced"}, {"measurement": "TNFR2 expression on lung cDC1", "setting": "TNFR2; WT mice, i.n. CDG 16 hrs", "value": "dramatically increased"}, {"measurement": "PD-L1 expression on transferred TNFR2+ and TNFR2− cDC2", "setting": "TNFR2; cDC2 subsets transferred into MPYS−/− mice, CDG i.n. 16 hrs", "value": "did not affect"}, {"measurement": "PspA-specific Th1, Th2, Th17 responses, ex vivo recall in lung cells and splenocytes", "setting": "[1]", "value": "did not show PspA-specific Th1, Th2 or Th17 responses"}, {"measurement": "YAE+ moDCs (I-Ab/Eα presentation)", "setting": "moDCs", "value": "increased"}, {"measurement": "Anti-PspA Abs in BALF and serum", "setting": "anti-PspA IgG and IgA; IRF4fl/flCD11ccre mice, PspA with CDG i.n.", "value": "did not induce"}, {"measurement": "Humoral and cellular immune responses", "setting": "anti-PspA IgG and IgA; TNFR1−/− mice", "value": "reduced humoral and cellular immune responses"}, {"measurement": "Adjuvant activity (humoral and cellular responses)", "setting": "anti-PspA IgG and IgA; TNFR2−/− mice", "value": "completely lost its adjuvant activity"}, {"measurement": "Over-inflammatory responses in the lung", "setting": "[2]; intranasal adjuvant", "value": "does not induce over-inflammatory responses"}, {"measurement": "Acute toxicity as a mucosal adjuvant", "setting": "[2]; mice", "value": "does not cause acute toxicity"}, {"measurement": "TBK1 activation (p-TBK1) in cDC2", "setting": "RelA, RelB, TBK1; TNFR2−/− mice", "value": "activated"}, {"measurement": "RelA activation in lung cDC1", "setting": "RelA, RelB, TBK1; i.n. CDG", "value": "activated RelA"}, {"measurement": "RelA and RelB activation in lung moDCs", "setting": "RelA, RelB, TBK1; i.n. CDG", "value": "activated both RelA and RelB"}, {"measurement": "RelB activation in lung cDC2", "setting": "RelA, RelB, TBK1; i.n. CDG", "value": "activated RelB; also recorded: further activate RelB"}, {"measurement": "Lung production of TNF, IL-1β and IL-10", "setting": "lung TNF [3]", "value": "induced"}, {"measurement": "CD86 on lung moDCs", "setting": "lung DCs; Batf3−/− mice", "value": "unaltered"}, {"measurement": "CD86 on lung moDCs", "setting": "lung DCs; IRF4fl/flCD11ccre mice", "value": "failed to upregulate CD86"}, {"measurement": "Activation of lung DCs (CD86)", "setting": "lung DCs; MPYSfl/flLysMcre mice", "value": "unaltered"}, {"measurement": "CD86 expression on moDCs", "setting": "lung DCs; MPYSfl/flLysMcre mice", "value": "normal levels of CD86 expression"}, {"measurement": "CD86 on lung cDC1", "setting": "lung DCs; RelBfl/flCD11ccre mice", "value": "upregulated CD86"}, {"measurement": "CD86 on lung cDC2", "setting": "lung DCs; RelBfl/flCD11ccre mice", "value": "failed to upregulate CD86"}, {"measurement": "CD86 on lung moDCs", "setting": "lung DCs; RelBfl/flCD11ccre mice", "value": "induced"}, {"measurement": "CD86 and CCR7 expression on cDC1", "setting": "lung DCs; TNFR2−/− mice", "value": "induced"}, {"measurement": "CD86 on lung moDCs", "setting": "lung DCs; TNFR2−/− mice", "value": "did not upregulate CD86"}, {"measurement": "CD86 or CCR7 expression in lung cDC2", "setting": "lung DCs; TNFR2−/− mice", "value": "did not enhance"}, {"measurement": "CD86 expression on alveolar macrophages", "setting": "lung DCs; WT mice, CDG treatment i.n.", "value": "did not increase expression of CD86"}, {"measurement": "CCR7 expression on lung moDCs", "setting": "lung DCs; WT mice, i.n. CDG", "value": "did not increase CCR7"}, {"measurement": "CD86 and CCR7 expression in lung cDC1 and cDC2", "setting": "lung DCs; WT mice, i.n. CDG", "value": "increased"}, {"measurement": "CD86 expression on lung moDCs", "setting": "lung DCs; WT mice, i.n. CDG", "value": "increased expression of CD86"}, {"measurement": "Migration of activated moDCs to lung draining lymph nodes", "setting": "lung DCs; WT mice, i.n. CDG", "value": "did not migrate to dLNs"}, {"measurement": "CDG-induced lung MCP-1 production", "setting": "lung TNF [4]; Batf3−/− mice (lack cDC1)", "value": "largely absent"}, {"measurement": "CDG-induced lung production of TNF, IL-1β and IL-12p70", "setting": "lung TNF [4]; IRF4fl/flCD11ccre mice (lack cDC2)", "value": "dramatically reduced"}, {"measurement": "CDG-induced lung TNF production", "setting": "lung TNF [4]; TBK1fl/flVavCre mice", "value": "dramatically reduced"}, {"measurement": "Lung TNF", "setting": "lung TNF [4]; TNFR2−/− mice", "value": "induced"}, {"measurement": "Adjuvant activity / response in MPYS−/− mice", "setting": "[5]; MPYS−/− mice", "value": "do not respond"}, {"measurement": "Cancer vaccine adjuvant activity", "setting": "[5]; animal models", "value": "showed cancer vaccine adjuvant activity"}, {"measurement": "Activation of Th1 and Th2 immune response vs LPS, CpG ODN or aluminum salt based adjuvant", "setting": "[5]; mice", "value": "more potent activator"}, {"measurement": "mTNF expression on TNFR2+ cDC2", "setting": "mTNF", "value": "expressed little mTNF"}, {"measurement": "mTNF expression on TNFR2− cDC2", "setting": "mTNF", "value": "main mTNF^+ cDC2 cells"}]}
